Entries after “also recorded” stand apart in the source; their conditions may differ.
Key:
[1] = 72-week population pharmacokinetic analysis in patients with SCD; format: in vivo, human
[2] = Effect of food (high-fat, high-calorie meal); format: in vivo; conditions: high-calorie meal vs fasted
[3] = target: OATP1B3 (Homo sapiens, UniProt Q9NPD5); test: In vitro transporter study; format: in vitro ADME
[4] = Population PK modeling of voxelotor in patients aged 4 to 11 years (part C); format: in vivo, human; conditions: 4-11 years, n=38; for % of patients with ≥20% Hb occupancy / % Hb occupancy: weight-based dosing; for % Hb occupancy: geometric mean (% CV) in Table 3
Description: Population PK modeling was used to determine the whole-blood and plasma PK parameters of voxelotor in the study population. The PK parameters included maximum whole blood or plasma concentration (Cmax), area under the concentration-time curve (AUC), terminal elimination half-life (t1/2), and percent Hb occupancy.
Statistical analyses: All efficacy and safety assessments were summarized with descriptive statistics. Population PK analyses using nonlinear mixed-effects modeling were performed to characterize voxelotor PK in plasma and whole blood.

[5] = target: OATP1A2 (Homo sapiens, UniProt P46721); test: In vitro transporter study; format: in vitro ADME
[6] = Clinical DDI: acid reducing agent omeprazole on voxelotor; conditions: in vivo
[7] = test system: pregnant rabbits; test: Embryo-fetal development study in rabbits; format: in vivo, rabbit; conditions: oral 25, 75, 150 mg/kg/day, gestation days 7 through 19
Description: In embryo-fetal development studies, voxelotor was administered orally to pregnant rats at 15, 50, and 250 mg/kg/day (gestation days 7 through 17) and rabbits at 25, 75, and 150 mg/kg/day (gestation days 7 through 19) through organogenesis.

[8] = target: OCT2 (Homo sapiens, UniProt O15244); test: In vitro transporter study; format: in vitro ADME
[9] = PK in patients with HbSC genotype; format: in vivo, human
[10] = target: OATP1B1 (Homo sapiens, UniProt Q9Y6L6); test: In vitro transporter study; format: in vitro ADME
[11] = target: T1, CYP3A4 (Homo sapiens, UniProt P08684); test: Clinical probe-substrate DDI study: midazolam; conditions: human, in vivo
Description: (§1) The effect of voxelotor on the pharmacokinetics (PK) of a single dose of caffeine, warfarin sodium, omeprazole, and midazolam hydrochloride, which are probe substrates for cytochrome P450 (CYP)1A2, CYP2C9, CYP2C19, and CYP3A4, respectively, were studied in healthy subjects. During Period 1, subjects received a single dose of caffeine 100 mg, warfarin sodium 10 mg+vitamin K 10 mg, omeprazole 20 mg, and midazolam hydrochloride 2 mg on Day 1. During Period 2, subjects received voxelotor 900 mg QD on Days 1 and 2 followed by 600 mg QD on Day 3, a single dose of caffeine 100 mg, warfarin sodium 10 mg+vitamin K 10 mg, omeprazole 20 mg, and midazolam hydrochloride 2 mg on Day 4, and voxelotor 600 mg QD on Days 4 through 7.
(§2) Whole blood and plasma concentrations of voxelotor and plasma concentrations of caffeine, paraxanthine, S-warfarin, omeprazole, 5-hydroxyomeprazole, midazolam, and 1-hydroxymidazolam were determined using validated assays.

[12] = target: T1, CYP3A4; test: Clinical DDI: strong CYP3A4 inhibitor itraconazole on voxelotor; format: in vivo; set-up: host or cells: Simcyp PBPK simulation; conditions: healthy subjects
[13] = target: CYP1A2 (Homo sapiens, UniProt P05177); test: Clinical probe-substrate DDI study: caffeine; format: in vivo
Description: as §1, §2

[14] = test system: RasH2 transgenic mice; test: 26-week carcinogenicity study; format: in vivo, mouse; conditions: 26 weeks; oral 30, 150, or 500 mg/kg/day
[15] = test system: rats; test: Fertility and early embryonic development study; format: in vivo, rat
Description: In a fertility and early embryonic development study, voxelotor was administered orally to rats at 15, 50, and 250 mg/kg/day. Males were dosed 28 days prior to mating through cohabitation and females were dosed 14 days prior to mating through gestation Day 7.

[16] = PK in subjects with renal impairment; format: in vivo, human
Description: Following a single 900 mg dose of voxelotor, whole blood exposures in subjects with severe renal impairment (eGFR <30 mL/min/1.73 m^2) were 25% lower compared to healthy controls.

[17] = test system: patients with SCD; test: HOPE trial: safety; format: in vivo, human
Description: The safety of OXBRYTA was evaluated in the HOPE trial based on data from 88 patients with SCD who received OXBRYTA 1,500 mg and 91 patients who received placebo orally once daily [see Clinical Studies (14.1)]. Seventy-four patients received OXBRYTA 1,500 mg once daily for ≥24 weeks, 65 patients for ≥48 weeks, and 63 patients completed the 72-week treatment period.
In patients who received OXBRYTA 1,500 mg once daily, the median age was 24 years (range:12 to 59 years); 65% female; 66% Black or African American and 23% Arab/Middle Eastern; and 65% receiving hydroxyurea at baseline.

T1 sequence (P08684 whole entry): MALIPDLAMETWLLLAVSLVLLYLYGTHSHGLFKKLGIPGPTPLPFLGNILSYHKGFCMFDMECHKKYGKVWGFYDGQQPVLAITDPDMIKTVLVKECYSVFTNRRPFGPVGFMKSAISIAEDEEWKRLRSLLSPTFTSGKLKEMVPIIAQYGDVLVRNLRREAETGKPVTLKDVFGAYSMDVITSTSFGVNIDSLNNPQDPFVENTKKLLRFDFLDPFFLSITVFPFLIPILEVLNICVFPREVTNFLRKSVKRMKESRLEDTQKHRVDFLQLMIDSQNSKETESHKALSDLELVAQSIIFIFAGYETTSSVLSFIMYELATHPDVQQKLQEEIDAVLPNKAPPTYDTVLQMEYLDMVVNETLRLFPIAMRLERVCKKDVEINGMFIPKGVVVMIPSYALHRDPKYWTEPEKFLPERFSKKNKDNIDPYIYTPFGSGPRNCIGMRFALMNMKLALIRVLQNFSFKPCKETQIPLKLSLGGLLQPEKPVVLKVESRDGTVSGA
Chain of CYP1A2 (P05177 whole entry): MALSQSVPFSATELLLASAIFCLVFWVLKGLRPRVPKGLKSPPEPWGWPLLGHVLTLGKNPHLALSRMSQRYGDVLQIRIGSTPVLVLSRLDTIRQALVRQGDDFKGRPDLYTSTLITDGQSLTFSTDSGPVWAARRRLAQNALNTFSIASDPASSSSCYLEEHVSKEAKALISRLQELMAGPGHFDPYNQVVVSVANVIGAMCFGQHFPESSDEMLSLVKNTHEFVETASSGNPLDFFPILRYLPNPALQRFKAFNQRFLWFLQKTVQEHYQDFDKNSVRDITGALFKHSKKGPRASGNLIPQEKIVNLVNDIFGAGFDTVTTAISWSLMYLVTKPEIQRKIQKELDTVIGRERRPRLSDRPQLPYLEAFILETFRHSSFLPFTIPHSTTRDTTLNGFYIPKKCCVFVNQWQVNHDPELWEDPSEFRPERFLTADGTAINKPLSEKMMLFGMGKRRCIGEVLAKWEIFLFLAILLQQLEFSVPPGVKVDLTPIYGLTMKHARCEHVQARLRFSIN
Chain of OATP1B3 (Q9NPD5 whole entry, species assumed): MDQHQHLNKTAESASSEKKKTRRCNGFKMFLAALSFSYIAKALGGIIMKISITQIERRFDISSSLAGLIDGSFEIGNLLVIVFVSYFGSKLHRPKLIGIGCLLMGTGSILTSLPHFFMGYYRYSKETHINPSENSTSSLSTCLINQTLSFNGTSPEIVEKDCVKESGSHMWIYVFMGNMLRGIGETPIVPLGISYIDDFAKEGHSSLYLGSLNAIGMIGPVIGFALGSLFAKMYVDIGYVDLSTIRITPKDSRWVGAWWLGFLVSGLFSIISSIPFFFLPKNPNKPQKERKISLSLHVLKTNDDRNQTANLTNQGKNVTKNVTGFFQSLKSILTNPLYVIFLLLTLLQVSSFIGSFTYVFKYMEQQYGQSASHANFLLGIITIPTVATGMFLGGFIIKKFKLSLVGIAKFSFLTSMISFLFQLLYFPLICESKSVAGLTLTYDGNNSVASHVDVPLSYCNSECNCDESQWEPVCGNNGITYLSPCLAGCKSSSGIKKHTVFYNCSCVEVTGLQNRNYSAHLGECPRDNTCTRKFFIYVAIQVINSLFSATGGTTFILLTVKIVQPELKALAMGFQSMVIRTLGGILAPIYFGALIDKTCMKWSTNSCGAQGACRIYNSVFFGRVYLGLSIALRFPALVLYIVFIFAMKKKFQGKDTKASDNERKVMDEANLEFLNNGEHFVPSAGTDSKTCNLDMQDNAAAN
Chain of OATP1B1 (Q9Y6L6 whole entry, species assumed): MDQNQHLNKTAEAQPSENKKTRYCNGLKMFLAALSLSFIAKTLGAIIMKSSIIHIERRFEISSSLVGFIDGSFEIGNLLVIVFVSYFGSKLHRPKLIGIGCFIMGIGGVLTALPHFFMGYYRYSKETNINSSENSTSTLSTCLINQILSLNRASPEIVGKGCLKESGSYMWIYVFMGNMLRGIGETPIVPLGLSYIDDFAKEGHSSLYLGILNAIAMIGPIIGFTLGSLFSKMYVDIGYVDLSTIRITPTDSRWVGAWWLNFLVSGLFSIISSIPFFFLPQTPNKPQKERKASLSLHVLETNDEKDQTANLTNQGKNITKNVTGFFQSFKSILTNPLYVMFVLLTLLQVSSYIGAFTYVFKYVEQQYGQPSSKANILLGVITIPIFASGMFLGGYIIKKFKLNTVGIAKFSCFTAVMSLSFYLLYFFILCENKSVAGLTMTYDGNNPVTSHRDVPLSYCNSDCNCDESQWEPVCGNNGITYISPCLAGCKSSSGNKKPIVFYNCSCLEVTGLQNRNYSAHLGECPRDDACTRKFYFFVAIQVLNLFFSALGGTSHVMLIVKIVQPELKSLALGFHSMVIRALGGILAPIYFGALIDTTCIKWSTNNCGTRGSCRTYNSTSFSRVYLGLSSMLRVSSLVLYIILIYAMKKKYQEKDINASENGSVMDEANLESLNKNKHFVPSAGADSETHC
Chain of OATP1A2 (P46721 whole entry, species assumed): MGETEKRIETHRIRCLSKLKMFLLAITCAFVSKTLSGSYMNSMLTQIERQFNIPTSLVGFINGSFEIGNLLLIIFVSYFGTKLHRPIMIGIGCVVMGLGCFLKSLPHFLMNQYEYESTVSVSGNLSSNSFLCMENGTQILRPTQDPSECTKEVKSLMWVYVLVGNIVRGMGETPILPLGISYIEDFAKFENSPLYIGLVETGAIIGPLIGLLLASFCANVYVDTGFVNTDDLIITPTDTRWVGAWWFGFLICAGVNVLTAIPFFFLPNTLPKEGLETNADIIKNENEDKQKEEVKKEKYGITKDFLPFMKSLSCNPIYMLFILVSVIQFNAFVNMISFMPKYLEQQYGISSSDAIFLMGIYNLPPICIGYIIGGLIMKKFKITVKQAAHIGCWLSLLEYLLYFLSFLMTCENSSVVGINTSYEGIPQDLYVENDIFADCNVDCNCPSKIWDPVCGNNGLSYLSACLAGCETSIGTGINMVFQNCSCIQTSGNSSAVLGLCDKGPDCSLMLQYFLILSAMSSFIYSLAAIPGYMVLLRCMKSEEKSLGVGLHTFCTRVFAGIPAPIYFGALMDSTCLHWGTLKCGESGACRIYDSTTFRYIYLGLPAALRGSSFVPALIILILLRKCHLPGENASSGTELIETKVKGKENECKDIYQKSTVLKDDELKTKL
Chain of OCT2 (O15244 whole entry): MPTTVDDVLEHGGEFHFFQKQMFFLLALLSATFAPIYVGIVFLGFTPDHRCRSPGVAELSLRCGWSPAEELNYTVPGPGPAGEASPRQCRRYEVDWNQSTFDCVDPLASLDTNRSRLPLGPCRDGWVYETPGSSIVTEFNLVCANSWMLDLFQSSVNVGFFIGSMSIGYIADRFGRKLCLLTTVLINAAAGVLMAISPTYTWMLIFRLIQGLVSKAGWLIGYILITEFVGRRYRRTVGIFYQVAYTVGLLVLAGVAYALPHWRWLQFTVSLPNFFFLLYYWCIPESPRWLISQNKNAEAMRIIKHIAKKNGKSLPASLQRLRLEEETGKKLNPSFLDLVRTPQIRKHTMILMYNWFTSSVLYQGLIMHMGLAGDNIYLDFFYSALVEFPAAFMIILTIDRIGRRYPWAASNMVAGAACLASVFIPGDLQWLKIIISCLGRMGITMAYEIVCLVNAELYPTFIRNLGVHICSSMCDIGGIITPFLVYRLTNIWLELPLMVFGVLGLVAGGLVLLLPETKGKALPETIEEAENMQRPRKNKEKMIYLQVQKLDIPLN

CC(C)n1nccc1-c1ncccc1COc1cccc(O)c1C=O [voxelotor, 2-hydroxy-6-((2-(1-isopropyl-1H-pyrazol-5-yl)pyridin-3-yl)methoxy)benzaldehyde]
AUC0-24 h, whole blood ([1]; 1,500 mg, geometric mean): 3,830 μg · hr/mL
Cmax, whole blood ([1]; 1,500 mg, geometric mean): 180 µg/mL
differences in PK based on age (12 to 59 years), sex, body weight (28 to 135 kg), mild to severe renal impairment ([1]; human, in vivo): No clinically significant differences
Cmax ([1]; human, plasma, oral, 1500 mg, 1,500 mg, geometric mean): 14 µg/mL
half-life ([1]; human, plasma, oral, 1500 mg, 1,500 mg, geometric mean, patients with SCD, read-out: Half-life (terminal elimination), plasma (converted)): 38.7 h
AUC(0-t) ([1]; human, plasma, oral, 1500 mg, 1,500 mg, geometric mean, read-out: AUC0-24 h, plasma): 278 µg·h/mL
Vd ([1]; human, plasma, oral, read-out: apparent volume of distribution of the central compartment): 333 L
apparent volume of distribution of the peripheral compartment ([1]; plasma): 72.3 L
apparent oral clearance ([1]; plasma, patients with SCD): 6.1 L/h
exposures in whole blood and plasma, pediatric patients 4 to <17 years vs adults ([1]; recommended dosage): similar
increase in AUC with food, plasma [2]: 42%
increase in AUC with food, whole blood [2]: 42%
increase in Cmax with food, plasma [2]: 95%
increase in Cmax with food, whole blood [2]: 45%
OATP1B3 inhibition [3]: not an inhibitor
substrate of OATP1B3 [3]: not a substrate
% of patients with ≥20% Hb occupancy [4]: Approximately 76%
% of patients with ≥20% Hb occupancy ([4]; listed as Voxelotor): 76.3%
% Hb occupancy [4]: 26%
% Hb occupancy ([4]; listed as Voxelotor): 26.16 (32.2) %
Cmax ([4]; human, whole blood, oral, geometric mean (% CV), 600/900/1500 mg weight-based): 148 µg/mL
AUC(0-t) ([4]; human, whole blood, oral, geometric mean (% CV), 600/900/1500 mg weight-based, read-out: AUC0-24 h, whole blood): 3260 µg·h/mL
half-life ([4]; human, whole blood, oral, geometric mean (% CV), read-out: t1/2, whole blood (converted)): 27.2 h
substrate of OATP1A2 [5]: not a substrate
effect of omeprazole (proton pump inhibitor) on voxelotor exposure [6]: did not alter voxelotor exposure
developmental outcome [7]: no adverse developmental effects; also recorded: no evidence of adverse developmental outcomes
OCT2 inhibition [8]: not an inhibitor
steady state whole blood AUC higher in HbSC vs HbSS genotype ([9]; HbSC n=11, HbSS n=220): 50%
steady state whole blood Cmax higher in HbSC vs HbSS genotype ([9]; HbSC n=11, HbSS n=220): 45%
steady state plasma AUC higher in HbSC vs HbSS genotype ([9]; human, in vivo): 23%
steady state plasma Cmax higher in HbSC vs HbSS genotype ([9]; human, in vivo): 15%
OATP1B1 inhibition [10]: not an inhibitor
substrate of OATP1B1 [10]: not a substrate
CYP3A4 inhibition in vivo [11]: inhibits
CYP3A4 inhibitor classification [11]: moderate inhibitor
increase of voxelotor AUC with itraconazole [12]: 11%
effect of voxelotor on PK of CYP1A2 probe substrate caffeine ([13]; healthy subjects, voxelotor 900/600 mg QD, caffeine 100 mg): no clinically meaningful effect
CYP1A2 inhibition in vivo ([13]; human, in vivo): not
carcinogenicity [14]: not carcinogenic
sperm morphology ([15]; 250 mg/kg/day): changes in sperm morphology
sperm motility ([15]; 250 mg/kg/day): decreased
fertility or reproductive function ([15]; oral 15, 50, 250 mg/kg/day): no effect on fertility or reproductive function
exposure at 250 mg/kg/day relative to human exposure at 1,500 mg/day ([15]; rat, in vivo): approximately 5 times
effect of renal function on excretion ([16]; human, in vivo): no clinically significant effect
unbound plasma concentrations, severe renal impairment vs healthy controls ([16]; single 900 mg dose): comparable
whole blood exposures lower in severe renal impairment vs healthy controls ([16]; single 900 mg dose, eGFR <30 mL/min/1.73 m^2): 25%
serious adverse reactions, patients ([17]; 1,500 mg once daily, 3/88): 3%
permanent discontinuation due to an adverse reaction (Grades 1-4), patients ([17]; 1,500 mg once daily, 4/88): 5%
Adverse reaction: Abdominal Pain ([17]; 1,500 mg, N=88): 23%
Adverse reaction: Diarrhea ([17]; 1,500 mg, N=88): 23%
Adverse reaction: Headache ([17]; 1,500 mg, N=88): 32%
Adverse reaction: Nausea ([17]; 1,500 mg, N=88): 19%
Adverse reaction: Pyrexia ([17]; 1,500 mg, N=88): 15%
Adverse reaction: Rash ([17]; 1,500 mg, N=88): 15%
dosage modifications (dose reduction or dosing interruption) due to an adverse reaction, patients ([17]; 42/88): 48%
